# Test results taken from US10457654B2 (GENENTECH, INC., priority 2017, dated 2019).
# Where a name gives a salt, the structure may show the parent alone.
# Key:
# [1] = molecular target: T1, hNav1.7 (Homo sapiens (Human), UniProt Q15858); experiment: Patch voltage clamp electrophysiology assay (EP), Syncropatch 384PE, CHO cells expressing Nav1.7; format: cell-based; details: holding potential -50 mV; […] compound incubation; read-out: EP_SP hNav1.7 (Ex. 243B) IC50
# How it was run: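 Automated whole-cell patch clamp on CHO cells stably expressing human Nav1.7, CsCl/EGTA internal and NMDG/80 mM Na+ external (pH 7.4). From −50 mV holding, −10 mV step, 20 ms recovery at −150 mV, then second −10 mV pulse where block is measured; inhibition after 7.5 min compound incubation.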
# Target sequence in this assay (Q15858 other isoform, or with tags, fused parts or gaps): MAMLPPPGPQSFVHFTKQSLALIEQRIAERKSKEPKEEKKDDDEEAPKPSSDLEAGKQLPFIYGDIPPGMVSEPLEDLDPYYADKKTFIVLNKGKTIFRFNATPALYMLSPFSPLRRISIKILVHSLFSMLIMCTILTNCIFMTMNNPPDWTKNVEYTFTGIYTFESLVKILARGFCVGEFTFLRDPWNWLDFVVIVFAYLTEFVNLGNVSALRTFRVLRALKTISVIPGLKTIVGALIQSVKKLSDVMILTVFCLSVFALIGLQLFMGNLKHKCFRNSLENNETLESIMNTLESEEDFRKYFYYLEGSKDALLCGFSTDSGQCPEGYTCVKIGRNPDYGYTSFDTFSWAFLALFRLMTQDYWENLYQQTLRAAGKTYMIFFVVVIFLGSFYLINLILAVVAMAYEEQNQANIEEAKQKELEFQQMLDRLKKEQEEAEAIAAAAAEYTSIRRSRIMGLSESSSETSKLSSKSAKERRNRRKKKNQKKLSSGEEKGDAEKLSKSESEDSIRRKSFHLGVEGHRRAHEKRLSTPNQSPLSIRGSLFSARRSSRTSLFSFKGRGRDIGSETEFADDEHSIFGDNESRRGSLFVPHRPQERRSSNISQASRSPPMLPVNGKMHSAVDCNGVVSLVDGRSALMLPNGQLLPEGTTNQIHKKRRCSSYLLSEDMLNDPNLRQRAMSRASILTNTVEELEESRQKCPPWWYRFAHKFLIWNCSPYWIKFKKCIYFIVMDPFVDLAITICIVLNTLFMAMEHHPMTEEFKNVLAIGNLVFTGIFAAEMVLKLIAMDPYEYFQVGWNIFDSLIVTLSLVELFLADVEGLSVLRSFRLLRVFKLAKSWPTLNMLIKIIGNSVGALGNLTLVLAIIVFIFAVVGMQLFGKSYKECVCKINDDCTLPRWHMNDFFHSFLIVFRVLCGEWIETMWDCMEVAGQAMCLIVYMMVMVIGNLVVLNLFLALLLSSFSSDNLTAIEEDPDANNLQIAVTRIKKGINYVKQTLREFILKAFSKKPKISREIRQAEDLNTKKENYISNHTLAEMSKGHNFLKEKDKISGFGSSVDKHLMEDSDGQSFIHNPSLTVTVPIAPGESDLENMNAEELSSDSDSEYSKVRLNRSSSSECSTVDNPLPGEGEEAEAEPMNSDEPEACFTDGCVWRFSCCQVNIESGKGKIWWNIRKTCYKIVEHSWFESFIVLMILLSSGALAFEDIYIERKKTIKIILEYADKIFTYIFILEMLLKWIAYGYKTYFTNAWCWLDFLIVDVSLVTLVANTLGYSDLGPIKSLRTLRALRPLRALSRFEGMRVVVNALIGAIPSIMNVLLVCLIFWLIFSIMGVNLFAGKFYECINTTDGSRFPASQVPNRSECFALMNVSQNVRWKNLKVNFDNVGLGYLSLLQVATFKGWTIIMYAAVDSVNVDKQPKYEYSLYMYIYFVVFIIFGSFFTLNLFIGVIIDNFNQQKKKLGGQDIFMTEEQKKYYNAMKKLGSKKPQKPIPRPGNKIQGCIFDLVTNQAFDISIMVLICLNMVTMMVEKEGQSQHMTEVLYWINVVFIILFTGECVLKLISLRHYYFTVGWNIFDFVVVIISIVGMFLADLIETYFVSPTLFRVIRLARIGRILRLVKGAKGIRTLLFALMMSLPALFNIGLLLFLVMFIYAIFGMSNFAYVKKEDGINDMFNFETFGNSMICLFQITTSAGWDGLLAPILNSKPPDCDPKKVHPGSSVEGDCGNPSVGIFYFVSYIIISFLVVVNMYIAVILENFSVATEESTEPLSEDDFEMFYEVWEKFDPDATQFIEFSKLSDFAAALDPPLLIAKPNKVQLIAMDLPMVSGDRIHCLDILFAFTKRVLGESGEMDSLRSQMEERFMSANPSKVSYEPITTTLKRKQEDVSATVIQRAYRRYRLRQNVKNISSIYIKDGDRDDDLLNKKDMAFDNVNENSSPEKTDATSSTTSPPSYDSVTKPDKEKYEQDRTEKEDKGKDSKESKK
# [2] = molecular target: T1, hNav1.7; experiment: Tritiated compound binding to membranes from cells expressing hNav1.7 and the β1 subunit, competitive binding (LBA, Ex. 243A); details: 100 pM [3H]compound, 18 h, room temperature; read-out: Nav1.7 LBA (Ex. 243A) IC50
# Target sequence in this assay (Q15858 whole entry, looked up): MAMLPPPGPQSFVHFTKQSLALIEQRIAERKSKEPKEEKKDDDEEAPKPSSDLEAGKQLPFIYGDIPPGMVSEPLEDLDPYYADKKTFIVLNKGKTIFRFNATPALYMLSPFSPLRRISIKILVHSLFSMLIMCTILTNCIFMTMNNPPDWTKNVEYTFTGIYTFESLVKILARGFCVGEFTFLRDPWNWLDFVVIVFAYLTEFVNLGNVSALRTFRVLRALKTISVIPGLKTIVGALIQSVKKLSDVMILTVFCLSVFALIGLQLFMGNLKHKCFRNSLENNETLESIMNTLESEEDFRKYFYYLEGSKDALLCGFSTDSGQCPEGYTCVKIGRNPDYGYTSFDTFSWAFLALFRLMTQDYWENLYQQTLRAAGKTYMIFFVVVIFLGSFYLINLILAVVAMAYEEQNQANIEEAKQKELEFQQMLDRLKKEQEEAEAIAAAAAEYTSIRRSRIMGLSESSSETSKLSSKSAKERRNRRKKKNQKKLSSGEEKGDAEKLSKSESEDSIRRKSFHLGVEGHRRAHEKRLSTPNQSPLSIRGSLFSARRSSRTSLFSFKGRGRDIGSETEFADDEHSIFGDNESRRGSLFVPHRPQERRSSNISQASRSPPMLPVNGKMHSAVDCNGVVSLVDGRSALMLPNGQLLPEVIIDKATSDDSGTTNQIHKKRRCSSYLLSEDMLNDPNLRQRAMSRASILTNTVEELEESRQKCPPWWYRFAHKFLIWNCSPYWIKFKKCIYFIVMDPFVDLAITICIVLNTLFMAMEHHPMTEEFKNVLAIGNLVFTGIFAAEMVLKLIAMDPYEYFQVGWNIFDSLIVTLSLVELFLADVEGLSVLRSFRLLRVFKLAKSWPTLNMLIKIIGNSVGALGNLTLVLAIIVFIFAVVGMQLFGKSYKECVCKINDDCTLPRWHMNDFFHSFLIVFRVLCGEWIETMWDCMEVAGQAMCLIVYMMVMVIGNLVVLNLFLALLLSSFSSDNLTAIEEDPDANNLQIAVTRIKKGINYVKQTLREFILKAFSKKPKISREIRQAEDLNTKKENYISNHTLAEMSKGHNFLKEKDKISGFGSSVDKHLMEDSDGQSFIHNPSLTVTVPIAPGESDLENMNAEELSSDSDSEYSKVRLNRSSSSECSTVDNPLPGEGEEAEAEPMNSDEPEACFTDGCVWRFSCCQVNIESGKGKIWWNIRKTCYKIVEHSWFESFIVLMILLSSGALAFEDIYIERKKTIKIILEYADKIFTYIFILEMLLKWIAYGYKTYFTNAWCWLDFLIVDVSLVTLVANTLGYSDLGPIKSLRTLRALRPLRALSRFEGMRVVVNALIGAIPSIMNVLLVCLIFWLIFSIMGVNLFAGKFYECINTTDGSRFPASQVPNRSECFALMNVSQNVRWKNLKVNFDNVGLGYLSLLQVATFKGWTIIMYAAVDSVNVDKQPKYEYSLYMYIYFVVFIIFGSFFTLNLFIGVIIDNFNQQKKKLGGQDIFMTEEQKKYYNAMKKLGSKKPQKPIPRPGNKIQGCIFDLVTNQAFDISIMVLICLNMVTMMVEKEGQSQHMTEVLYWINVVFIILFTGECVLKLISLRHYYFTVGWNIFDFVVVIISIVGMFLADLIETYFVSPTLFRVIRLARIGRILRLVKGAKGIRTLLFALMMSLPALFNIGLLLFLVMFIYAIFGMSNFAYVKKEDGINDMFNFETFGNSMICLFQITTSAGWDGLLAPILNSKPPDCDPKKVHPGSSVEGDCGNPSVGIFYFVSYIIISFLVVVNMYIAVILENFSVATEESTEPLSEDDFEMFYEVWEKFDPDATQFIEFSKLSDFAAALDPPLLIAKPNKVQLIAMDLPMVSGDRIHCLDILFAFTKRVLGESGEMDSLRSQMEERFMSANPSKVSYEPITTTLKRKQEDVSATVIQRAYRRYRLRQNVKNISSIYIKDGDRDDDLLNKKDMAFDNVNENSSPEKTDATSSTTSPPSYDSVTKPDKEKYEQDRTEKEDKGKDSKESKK
# Target sequence in this assay (Q07699 whole entry partner, looked up): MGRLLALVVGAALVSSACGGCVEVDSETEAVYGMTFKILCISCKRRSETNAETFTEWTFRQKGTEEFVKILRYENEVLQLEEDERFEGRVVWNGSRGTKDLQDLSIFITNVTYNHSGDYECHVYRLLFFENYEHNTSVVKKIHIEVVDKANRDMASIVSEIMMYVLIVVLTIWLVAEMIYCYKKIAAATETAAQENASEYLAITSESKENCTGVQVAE
Structure (SMILES),IC50 [1] [nM],IC50 [2] [nM]
"O=S(=O)(Nc1nccs1)c1cc(Cl)c(N[C@H]2CCCC[C@@H]2N2CCCC2)cc1F [Example 30, 5-chloro-2-fluoro-4-(((1S,2S)-2-(pyrrolidin-1-yl)cyclohexyl)amino)-N-(thiazol-2-yl)benzenesulfonamide]",9.77,9.73
"CN(C)[C@H]1CC[C@H](C(F)(F)F)C[C@@H]1Nc1cc(F)c(S(=O)(=O)Nc2nccs2)cc1Cl [Example 75, 5-chloro-4-(((1S,2S,5S)-2-(dimethylamino)-5-(trifluoromethyl)cyclohexyl)amino)-2-fluoro-N-(thiazol-2-yl)benzenesulfonamide]",,37.9
"CN(C)[C@H]1CC[C@@H](C(F)(F)F)C[C@@H]1Nc1cc(F)c(S(=O)(=O)Nc2nccs2)cc1Cl [Example 76, 5-chloro-4-(((1S,2S,5R)-2-(dimethylamino)-5-(trifluoromethyl)cyclohexyl)amino)-2-fluoro-N-(thiazol-2-yl)benzenesulfonamide]",,116
"CN(C)[C@H]1C[C@H](C(F)(F)F)CC[C@@H]1Nc1cc(F)c(S(=O)(=O)Nc2nccs2)cc1Cl [Example 77, 5-chloro-4-(((1S,2S,4R)-2-(dimethylamino)-4-(trifluoromethyl)cyclohexyl)amino)-2-fluoro-N-(thiazol-2-yl)benzenesulfonamide]",,43.2
"CN(C)[C@H]1CCCC[C@@H]1Oc1cc(F)c(S(=O)(=O)Nc2nccs2)cc1C(F)(F)F [Example 78, 4-(((1S,2S)-2-(dimethylamino)cyclohexyl)oxy)-2-fluoro-N-(thiazol-2-yl)-5-(trifluoromethyl)benzenesulfonamide formate]",,95.6
"CN(CC(N)=O)[C@H]1CCCC[C@@H]1Nc1cc(F)c(S(=O)(=O)Nc2nccs2)cc1Cl [Example 79, 2-(((1S,2S)-2-((2-chloro-5-fluoro-4-(N-(thiazol-2-yl)sulfamoyl)phenyl)amino)cyclohexyl)(methyl)amino)acetamide formate]",,9.28
"CNC(=O)CN(C)[C@H]1CCCC[C@@H]1Nc1cc(F)c(S(=O)(=O)Nc2nccs2)cc1Cl [Example 80, 2-(((1S,2S)-2-((2-chloro-5-fluoro-4-(N-(thiazol-2-yl)sulfamoyl)phenyl)amino)cyclohexyl)(methyl)amino)-N-methylacetamide formate]",,122
"CN(C)[C@@H]1C[C@@H](C(F)(F)F)CC[C@H]1Nc1cc(F)c(S(=O)(=O)Nc2nccs2)cc1Cl [Example 81, 5-chloro-4-(((1R,2R,4S)-2-(dimethylamino)-4-(trifluoromethyl)cyclohexyl)amino)-2-fluoro-N-(thiazol-2-yl)benzenesulfonamide]",,1740
"CN(C)[C@H]1C[C@@H](C(F)(F)F)CC[C@@H]1Nc1cc(F)c(S(=O)(=O)Nc2nccs2)cc1Cl [Example 82, 5-chloro-4-(((1S,2S,4S)-2-(dimethylamino)-4-(trifluoromethyl)cyclohexyl)amino)-2-fluoro-N-(thiazol-2-yl)benzenesulfonamide]",,3.35
"CN(C)[C@@H]1CC[C@@H](C(F)(F)F)C[C@H]1Nc1cc(F)c(S(=O)(=O)Nc2nccs2)cc1Cl [Example 83, 5-chloro-4-(((1R,2R,5R)-2-(dimethylamino)-5-(trifluoromethyl)cyclohexyl)amino)-2-fluoro-N-(thiazol-2-yl)benzenesulfonamide]",,379
"CN(C)[C@@H]1CC[C@H](C(F)(F)F)C[C@H]1Nc1cc(F)c(S(=O)(=O)Nc2nccs2)cc1Cl [Example 84, 5-chloro-4-(((1R,2R,5S)-2-(dimethylamino)-5-(trifluoromethyl)cyclohexyl)amino)-2-fluoro-N-(thiazol-2-yl)benzenesulfonamide]",,3000
"CN(C)[C@H]1CCCC[C@@H]1Nc1cc(F)c(S(=O)(=O)Nc2cccc(Cl)n2)cc1Cl [Example 85, 5-chloro-N-(6-chloropyridin-2-yl)-4-(((1S,2S)-2-(dimethylamino)cyclohexyl)amino)-2-fluorobenzenesulfonamide]",,252
"CC(O)CN(C)[C@H]1CCCC[C@@H]1Nc1cc(F)c(S(=O)(=O)Nc2cccc(F)n2)cc1Cl (stereo partly drawn) [Example 86, 5-chloro-2-fluoro-N-(6-fluoropyridin-2-yl)-4-(((1S,2S)-2-((2-hydroxypropyl)(methyl)amino)cyclohexyl)amino)benzenesulfonamide]",,38.1
"CN(C)[C@H]1CC[C@H](c2cccc(C(F)(F)F)c2)C[C@@H]1Nc1cc(F)c(S(=O)(=O)Nc2nccs2)cc1Cl [Example 87, 5-chloro-4-(((1S,2S,5S)-2-(dimethylamino)-5-(3-(trifluoromethyl)phenyl)cyclohexyl)amino)-2-fluoro-N-(thiazol-2-yl)benzenesulfonamide]",,0.539
"CN(C)[C@H]1CC[C@@H](c2cccc(C(F)(F)F)c2)C[C@@H]1Nc1cc(F)c(S(=O)(=O)Nc2nccs2)cc1Cl [Example 88, 5-chloro-4-(((1S,2S,5R)-2-(dimethylamino)-5-(3-(trifluoromethyl)phenyl)cyclohexyl)amino)-2-fluoro-N-(thiazol-2-yl)benzenesulfonamide]",,201
"CN(CCO)[C@H]1CCCC[C@@H]1Nc1cc(F)c(S(=O)(=O)Nc2ccncn2)cc1Cl [Example 89, 5-chloro-2-fluoro-4-(((1S,2S)-2-((2-hydroxyethyl)(methyl)amino)cyclohexyl)amino)-N-(pyrimidin-4-yl)benzenesulfonamide formate]",,59.9
"CN(C1CNC1)[C@H]1CCCC[C@@H]1Oc1cc(F)c(S(=O)(=O)Nc2nccs2)cc1C1CC1 [Example 90, 4-(((1S,2S)-2-(azetidin-3-yl(methyl)amino)cyclohexyl)oxy)-5-cyclopropyl-2-fluoro-N-(thiazol-2-yl)benzenesulfonamide formate]",,2.64
"CN(C)[C@H]1CCCC[C@@H]1Nc1cc(F)c(S(=O)(=O)Nc2nccs2)cc1C1CCC1 [Example 91, 5-cyclobutyl-4-(((1S,2S)-2-(dimethylamino)cyclohexyl)amino)-2-fluoro-N-(thiazol-2-yl)benzenesulfonamide]",,13
"Cc1csc(NS(=O)(=O)c2cc(Cl)c(N[C@H]3CCCC[C@@H]3N3CCCC3)cc2F)n1 [Example 92, 5-chloro-2-fluoro-N-(4-methylthiazol-2-yl)-4-(((1S,2S)-2-(pyrrolidin-1-yl)cyclohexyl)amino)benzenesulfonamide formate]",,118
"CN(C)[C@@H]1CC[C@@H](c2cccc(C(F)(F)F)c2)C[C@H]1Nc1cc(F)c(S(=O)(=O)Nc2nccs2)cc1Cl [Example 93, 5-chloro-4-(((1R,2R,5R)-2-(dimethylamino)-5-(3-(trifluoromethyl)phenyl)cyclohexyl)amino)-2-fluoro-N-(thiazol-2-yl)benzenesulfonamide]",,64.7
"CN(C[C@H](O)C(F)(F)F)[C@H]1CCCC[C@@H]1Nc1cc(F)c(S(=O)(=O)Nc2nccs2)cc1Cl [Example 94, 5-chloro-2-fluoro-4-(((1S,2S)-2-(methyl((S)-3,3,3-trifluoro-2-hydroxypropyl)amino)cyclohexyl)amino)-N-(thiazol-2-yl)benzenesulfonamide]",,31.3
"CN(C[C@@H](O)C(F)(F)F)[C@H]1CCCC[C@@H]1Nc1cc(F)c(S(=O)(=O)Nc2nccs2)cc1Cl [Example 95, 5-chloro-2-fluoro-4-(((1S,2S)-2-(methyl((R)-3,3,3-trifluoro-2-hydroxypropyl)amino)cyclohexyl)amino)-N-(thiazol-2-yl)benzenesulfonamide]",,24.3
"CCN[C@H]1CCCC[C@@H]1Oc1cc(F)c(S(=O)(=O)Nc2ccncn2)cc1C1CC1 [Example 96, 5-cyclopropyl-4-(((1S,2S)-2-(ethylamino)cyclohexyl)oxy)-2-fluoro-N-(pyrimidin-4-yl)benzenesulfonamide]",,630
"CN(C1COC1)[C@H]1CCCC[C@@H]1Nc1cc(F)c(S(=O)(=O)Nc2nccs2)cc1Cl [Example 97, 5-chloro-2-fluoro-4-(((1S,2S)-2-(methyl(oxetan-3-yl)amino)cyclohexyl)amino)-N-(thiazol-2-yl)benzenesulfonamide]",,36.4
"O=S(=O)(Nc1cccc(F)n1)c1cc(Cl)c(N[C@@H]2CCCC[C@H]2N2CCCC2)cc1F [Example 98, 5-chloro-2-fluoro-N-(6-fluoropyridin-2-yl)-4-(((1R,2R)-2-(pyrrolidin-1-yl)cyclohexyl)amino)benzenesulfonamide]",,3000
"O=S(=O)(Nc1cccc(F)n1)c1cc(Cl)c(N[C@H]2CCCC[C@@H]2N2CCCC2)cc1F [Example 99, 5-chloro-2-fluoro-N-(6-fluoropyridin-2-yl)-4-(((1S,2S)-2-(pyrrolidin-1-yl)cyclohexyl)amino)benzenesulfonamide]",,65.5
"CCN[C@H]1CCCC[C@@H]1Nc1cc(F)c(S(=O)(=O)Nc2ccncn2)cc1C1CC1 [Example 100, 5-cyclopropyl-4-(((1S,2S)-2-(ethylamino)cyclohexyl)amino)-2-fluoro-N-(pyrimidin-4-yl)benzenesulfonamide]",,127
"O=S(=O)(Nc1nccs1)c1cc(Cl)c(N[C@H]2CCCC[C@@H]2N2CCOCC2)cc1F [Example 101, 5-chloro-2-fluoro-4-(((1S,2S)-2-morpholinocyclohexyl)amino)-N-(thiazol-2-yl)benzenesulfonamide]",,25.5
"CN(C)[C@@H]1CC[C@H](c2cccc(C(F)(F)F)c2)C[C@H]1Nc1cc(F)c(S(=O)(=O)Nc2nccs2)cc1Cl [Example 103, 5-chloro-4-(((1R,2R,5S)-2-(dimethylamino)-5-(3-(trifluoromethyl)phenyl)cyclohexyl)amino)-2-fluoro-N-(thiazol-2-yl)benzenesulfonamide]",,32.2
"O=S(=O)(Nc1nccs1)c1cc(Cl)c(N[C@H]2CCCC[C@@H]2N2CCC(F)C2)cc1F (stereo partly drawn) [Example 104, 5-chloro-2-fluoro-4-(((1S,2S)-2-(3-fluoropyrrolidin-1-yl)cyclohexyl)amino)-N-(thiazol-2-yl)benzenesulfonamide]",,35.6
